Measured values from ChEMBL document CHEMBL1130941, “Comparison of the intrinsic kinase activity and substrate specificity of c-Abl and Bcr-Abl” (Bioorg Med Chem Lett, 1998).
Peptide text beside a SMILES is read from it.

Experiments:
[1] = target: Tyrosine-protein kinase ABL1 (Homo sapiens) (UniProt P00519); test: Vmax/Km value for peptide phosphorylation by c-Abl protein tyrosine kinase
[2] = target: T1, Bcr/Abl fusion protein (Homo sapiens) (UniProt P00519+P11274); test: Vmax/Km value for peptide phosphorylation by Bcr-Abl protein tyrosine kinase; format: protein assay
T1 sequence (P00519 whole entry, looked up, the tested form may be a part): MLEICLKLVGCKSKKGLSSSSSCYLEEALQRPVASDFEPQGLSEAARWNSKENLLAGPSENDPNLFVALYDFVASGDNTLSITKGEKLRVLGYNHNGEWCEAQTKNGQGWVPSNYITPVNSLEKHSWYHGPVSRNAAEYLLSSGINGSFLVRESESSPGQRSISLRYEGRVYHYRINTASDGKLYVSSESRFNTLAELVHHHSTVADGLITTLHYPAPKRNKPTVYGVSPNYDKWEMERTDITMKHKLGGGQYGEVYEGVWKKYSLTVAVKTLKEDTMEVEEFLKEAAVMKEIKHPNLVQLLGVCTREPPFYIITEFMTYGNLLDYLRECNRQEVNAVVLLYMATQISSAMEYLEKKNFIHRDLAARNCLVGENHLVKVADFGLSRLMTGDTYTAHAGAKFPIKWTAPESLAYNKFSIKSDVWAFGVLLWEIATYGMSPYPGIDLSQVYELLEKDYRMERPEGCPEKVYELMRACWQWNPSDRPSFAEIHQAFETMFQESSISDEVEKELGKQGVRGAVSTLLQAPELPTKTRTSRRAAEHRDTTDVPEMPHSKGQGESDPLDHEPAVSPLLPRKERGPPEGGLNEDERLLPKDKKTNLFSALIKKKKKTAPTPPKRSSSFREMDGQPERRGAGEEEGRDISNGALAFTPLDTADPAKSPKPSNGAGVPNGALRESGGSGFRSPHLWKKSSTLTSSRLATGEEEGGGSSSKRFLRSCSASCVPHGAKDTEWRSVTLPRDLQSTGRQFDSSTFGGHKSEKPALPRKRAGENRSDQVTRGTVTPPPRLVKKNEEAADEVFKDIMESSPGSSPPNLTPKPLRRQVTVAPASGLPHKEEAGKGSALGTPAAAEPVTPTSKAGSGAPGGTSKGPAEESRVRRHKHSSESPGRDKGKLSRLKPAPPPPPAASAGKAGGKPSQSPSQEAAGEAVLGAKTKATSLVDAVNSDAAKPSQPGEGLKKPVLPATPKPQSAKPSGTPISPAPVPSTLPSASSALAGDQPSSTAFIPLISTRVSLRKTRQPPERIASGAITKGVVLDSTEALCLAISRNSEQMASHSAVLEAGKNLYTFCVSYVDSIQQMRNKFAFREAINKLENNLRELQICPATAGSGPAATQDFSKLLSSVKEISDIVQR
T1 sequence (P11274 whole entry, looked up, the tested form may be a part): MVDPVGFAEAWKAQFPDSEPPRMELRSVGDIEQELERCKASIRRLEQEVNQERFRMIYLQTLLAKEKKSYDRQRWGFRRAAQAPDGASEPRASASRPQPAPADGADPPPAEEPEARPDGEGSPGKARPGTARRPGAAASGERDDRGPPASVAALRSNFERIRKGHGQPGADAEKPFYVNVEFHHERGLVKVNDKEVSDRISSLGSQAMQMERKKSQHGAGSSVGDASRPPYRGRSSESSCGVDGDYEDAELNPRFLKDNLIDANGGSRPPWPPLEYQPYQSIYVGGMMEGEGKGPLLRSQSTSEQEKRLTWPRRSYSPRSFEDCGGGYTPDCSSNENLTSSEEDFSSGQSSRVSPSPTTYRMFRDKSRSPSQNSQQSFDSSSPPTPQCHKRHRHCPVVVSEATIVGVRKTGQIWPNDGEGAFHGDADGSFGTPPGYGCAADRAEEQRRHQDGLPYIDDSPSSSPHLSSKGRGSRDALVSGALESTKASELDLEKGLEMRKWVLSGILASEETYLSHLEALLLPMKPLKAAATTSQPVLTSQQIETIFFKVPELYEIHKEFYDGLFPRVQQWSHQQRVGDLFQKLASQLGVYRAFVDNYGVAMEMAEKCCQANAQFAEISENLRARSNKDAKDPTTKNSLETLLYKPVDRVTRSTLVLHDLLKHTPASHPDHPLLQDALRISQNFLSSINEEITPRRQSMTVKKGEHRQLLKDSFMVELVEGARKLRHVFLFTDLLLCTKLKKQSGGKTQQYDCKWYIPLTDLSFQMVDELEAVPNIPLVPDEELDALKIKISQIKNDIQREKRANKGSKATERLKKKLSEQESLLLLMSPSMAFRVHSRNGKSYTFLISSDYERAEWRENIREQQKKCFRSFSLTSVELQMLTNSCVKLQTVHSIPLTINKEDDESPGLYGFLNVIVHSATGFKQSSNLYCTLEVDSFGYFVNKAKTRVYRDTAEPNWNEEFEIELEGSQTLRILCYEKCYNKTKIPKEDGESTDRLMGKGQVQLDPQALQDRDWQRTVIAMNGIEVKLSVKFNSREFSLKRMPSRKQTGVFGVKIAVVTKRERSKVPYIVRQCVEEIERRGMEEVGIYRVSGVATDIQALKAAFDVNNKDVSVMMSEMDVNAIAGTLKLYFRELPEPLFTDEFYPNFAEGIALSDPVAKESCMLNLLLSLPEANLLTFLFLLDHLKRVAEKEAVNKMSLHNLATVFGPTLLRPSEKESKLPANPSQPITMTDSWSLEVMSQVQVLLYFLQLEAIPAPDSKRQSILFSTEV

[3] = target: T1, Bcr/Abl fusion protein (Homo sapiens); test: Peptide phosphorylation by Bcr-Abl protein tyrosine kinase at 25 degree for 30 min in a cell-free system; format: protein assay
[4] = target: T1, Bcr/Abl fusion protein (Homo sapiens); test: Ratio of peptide phosphorylation by Bcr-Abl and c-Abl protein tyrosine kinases; format: protein assay
[5] = target: Tyrosine-protein kinase ABL1 (Homo sapiens) (UniProt P00519); test: Peptide phosphorylation by c-Abl protein tyrosine kinase at 25 degree for 30 min in a cell-free system
[6] = tested on: CC[C@H](C)[C@H](NC(=O)[C@H](CCC(=O)O)NC(=O)[C@H](CC(=O)O)NC(=O)[C@H](Cc1ccc(O)cc1)NC(=O)[C@@H](NC(=O)[C@H](CCC(=O)O)NC(=O)[C@@H](N)CCC(=O)O)[C@@H](C)CC)C(=O)N[C@@H](Cc1ccc(O)cc1)C(=O)O; test: (§1) Vmax value for peptide phosphorylation by Bcr-Abl protein tyrosine kinase; format: protein assay
[7] = tested on: CC[C@H](C)[C@H](NC(=O)[C@H](CCCN=C(N)N)NC(=O)[C@@H](N)CCC(=O)O)C(=O)N[C@@H](Cc1ccc(O)cc1)C(=O)N[C@@H](C)C(=O)N[C@@H](CCCN=C(N)N)C(=O)N[C@H](C(=O)N[C@@H](CCCCN)C(=O)O)[C@@H](C)O; test: as §1; format: protein assay
[8] = tested on: CC[C@H](C)[C@H](NC(=O)[C@H](CCC(=O)O)NC(=O)[C@@H](N)CCC(=O)O)C(=O)N[C@@H](Cc1ccc(O)cc1)C(=O)N[C@@H](CC(=O)O)C(=O)N[C@@H](Cc1ccc(O)cc1)C(=O)N[C@@H](C)C(=O)N[C@@H](Cc1ccc(O)cc1)C(=O)O; test: as §1; format: protein assay
[9] = tested on: CC[C@H](C)[C@H](NC(=O)[C@H](CCC(=O)O)NC(=O)[C@@H](N)CCC(=O)O)C(=O)N[C@@H](Cc1ccc(O)cc1)C(=O)N[C@@H](CCC(=O)O)C(=O)N[C@@H](CCC(=O)O)C(=O)N1CCC[C@H]1C(=O)N[C@@H](Cc1ccc(O)cc1)C(=O)O; test: as §1; format: protein assay
[10] = tested on: CC[C@H](C)[C@H](NC(=O)[C@H](CCC(=O)O)NC(=O)[C@@H](N)CCC(=O)O)C(=O)N[C@@H](Cc1ccc(O)cc1)C(=O)N[C@@H](Cc1ccc(O)cc1)C(=O)N[C@@H](Cc1ccc(O)cc1)C(=O)N[C@H](C(=O)N[C@@H](Cc1c[nH]cn1)C(=O)O)C(C)C; test: as §1; format: protein assay
[11] = tested on: CC[C@H](C)[C@H](NC(=O)[C@H](CCC(=O)O)NC(=O)[C@@H](N)CCC(=O)O)C(=O)N[C@@H](Cc1ccc(O)cc1)C(=O)N[C@@H](C)C(=O)N[C@@H](CCC(=O)O)C(=O)N[C@@H](Cc1c[nH]c2ccccc12)C(=O)N[C@@H](Cc1ccccc1)C(=O)O; test: as §1; format: protein assay
[12] = tested on: CC[C@H](C)[C@H](NC(=O)[C@H](CCC(=O)O)NC(=O)[C@H](CC(=O)O)NC(=O)[C@H](Cc1ccc(O)cc1)NC(=O)[C@@H](NC(=O)[C@H](CCC(=O)O)NC(=O)[C@@H](N)CCC(=O)O)[C@@H](C)CC)C(=O)N[C@@H](Cc1ccc(O)cc1)C(=O)O; test: (§2) Km value for peptide phosphorylation by Bcr-Abl protein tyrosine kinase; format: protein assay
[13] = tested on: CC[C@H](C)[C@H](NC(=O)[C@H](CCCN=C(N)N)NC(=O)[C@@H](N)CCC(=O)O)C(=O)N[C@@H](Cc1ccc(O)cc1)C(=O)N[C@@H](C)C(=O)N[C@@H](CCCN=C(N)N)C(=O)N[C@H](C(=O)N[C@@H](CCCCN)C(=O)O)[C@@H](C)O; test: as §2; format: protein assay
[14] = tested on: CC[C@H](C)[C@H](NC(=O)[C@H](CCC(=O)O)NC(=O)[C@@H](N)CCC(=O)O)C(=O)N[C@@H](Cc1ccc(O)cc1)C(=O)N[C@@H](CC(=O)O)C(=O)N[C@@H](Cc1ccc(O)cc1)C(=O)N[C@@H](C)C(=O)N[C@@H](Cc1ccc(O)cc1)C(=O)O; test: as §2; format: protein assay
[15] = tested on: CC[C@H](C)[C@H](NC(=O)[C@H](CCC(=O)O)NC(=O)[C@@H](N)CCC(=O)O)C(=O)N[C@@H](Cc1ccc(O)cc1)C(=O)N[C@@H](CCC(=O)O)C(=O)N[C@@H](CCC(=O)O)C(=O)N1CCC[C@H]1C(=O)N[C@@H](Cc1ccc(O)cc1)C(=O)O; test: as §2; format: protein assay
[16] = tested on: CC[C@H](C)[C@H](NC(=O)[C@H](CCC(=O)O)NC(=O)[C@@H](N)CCC(=O)O)C(=O)N[C@@H](Cc1ccc(O)cc1)C(=O)N[C@@H](Cc1ccc(O)cc1)C(=O)N[C@@H](Cc1ccc(O)cc1)C(=O)N[C@H](C(=O)N[C@@H](Cc1c[nH]cn1)C(=O)O)C(C)C; test: as §2; format: protein assay
[17] = tested on: CC[C@H](C)[C@H](NC(=O)[C@H](CCC(=O)O)NC(=O)[C@@H](N)CCC(=O)O)C(=O)N[C@@H](Cc1ccc(O)cc1)C(=O)N[C@@H](C)C(=O)N[C@@H](CCC(=O)O)C(=O)N[C@@H](Cc1c[nH]c2ccccc12)C(=O)N[C@@H](Cc1ccccc1)C(=O)O; test: as §2; format: protein assay

Tyrosine-protein kinase ABL1 (Homo sapiens), sequence (P00519 whole entry, the tested form may be a part): as the sequence (P00519 whole entry, looked up, the tested form may be a part) above
Bcr/Abl fusion protein (Homo sapiens) (from UniProt P00519+P11274), sequence (P11274 whole entry, looked up, the tested form may be a part): as the sequence (P11274 whole entry, looked up, the tested form may be a part) above
Bcr/Abl fusion protein (Homo sapiens) (from UniProt P00519+P11274), sequence (P00519 whole entry, looked up, the tested form may be a part): as the sequence (P00519 whole entry, looked up, the tested form may be a part) above

Row | Compound | Vmax / Km (10^-9 L min-1) [1] | Vmax / Km (10^-9 L min-1) [2] | Activity [3] | Ratio [4] | Activity [5] | also measured
1 | CC[C@H](C)[C@H](NC(=O)[C@H](CCC(=O)O)NC(=O)[C@@H](N)CCC(=O)O)C(=O)N[C@@H](Cc1ccc(O)cc1)C(=O)N[C@@H](C)C(=O)N[C@@H](CCC(=O)O)C(=O)N[C@@H](Cc1c[nH]c2ccccc12)C(=O)N[C@@H](Cc1ccccc1)C(=O)O (H-EEIYAEWF-OH) | 14 | 97.6 | 22.6 pM | 3.98 | 5.69 pmol | –
2 | CC[C@H](C)[C@H](NC(=O)[C@H](CCCN=C(N)N)NC(=O)[C@@H](N)CCC(=O)O)C(=O)N[C@@H](Cc1ccc(O)cc1)C(=O)N[C@@H](C)C(=O)N[C@@H](CCCN=C(N)N)C(=O)N[C@H](C(=O)N[C@@H](CCCCN)C(=O)O)[C@@H](C)O (H-ERIYARTK-OH) | 2.47 | 42.2 | 22.9 pM | 6.79 | 3.37 pmol | –
3 | CC[C@H](C)[C@H](NC(=O)[C@H](CCC(=O)O)NC(=O)[C@@H](N)CCC(=O)O)C(=O)N[C@@H](Cc1ccc(O)cc1)C(=O)N[C@@H](CC(=O)O)C(=O)N[C@@H](Cc1ccc(O)cc1)C(=O)N[C@@H](C)C(=O)N[C@@H](Cc1ccc(O)cc1)C(=O)O (H-EEIYDYAY-OH) | 7.46 | 56.4 | 22.4 pM | 3.33 | 6.73 pmol | –
4 | CC[C@H](C)[C@H](NC(=O)[C@H](Cc1ccc(O)cc1)NC(=O)[C@H](CC(=O)O)NC(=O)[C@H](Cc1ccc(O)cc1)NC(=O)[C@@H](NC(=O)[C@H](CCC(=O)O)NC(=O)[C@@H](N)Cc1ccc(O)cc1)[C@@H](C)CC)C(=O)N[C@@H](CCC(=O)O)C(=O)O (H-YEIYDYIE-OH) | – | – | 4.33 pM | 2.29 | 1.89 pmol | –
5 | CC[C@H](C)[C@H](NC(=O)[C@H](CCC(=O)O)NC(=O)[C@@H](N)CCC(=O)O)C(=O)N[C@@H](Cc1ccc(O)cc1)C(=O)N[C@@H](Cc1ccc(O)cc1)C(=O)N[C@@H](Cc1ccc(O)cc1)C(=O)N[C@@H](CCC(=O)O)C(=O)N[C@@H](CC(C)C)C(=O)O (H-EEIYYYEL-OH) | – | – | 4.48 pM | 3.52 | 1.27 pmol | –
6 | CC[C@H](C)[C@H](NC(=O)[C@H](CCCN=C(N)N)NC(=O)[C@@H]1CCCN1)C(=O)N[C@@H](Cc1ccc(O)cc1)C(=O)N[C@@H](CC(=O)O)C(=O)N[C@H](C(=O)N1CCC[C@H]1C(=O)N[C@@H](Cc1ccc(O)cc1)C(=O)O)[C@@H](C)CC (H-PRIYDIPY-OH) | – | – | 9.5 pM | 5.97 | 1.59 pmol | –
7 | CC[C@H](C)[C@H](NC(=O)[C@H](CCC(=O)O)NC(=O)[C@@H](N)CCC(=O)O)C(=O)N[C@@H](Cc1ccc(O)cc1)C(=O)N[C@@H](CCC(=O)O)C(=O)N[C@@H](CCC(=O)O)C(=O)N1CCC[C@H]1C(=O)N[C@@H](Cc1ccc(O)cc1)C(=O)O (H-EEIYEEPY-OH) | 12.1 | 98.8 | 25.5 pM | 3.38 | 7.56 pmol | –
8 | CC[C@H](C)[C@H](NC(=O)[C@H](CCC(=O)O)NC(=O)[C@H](Cc1ccc(O)cc1)NC(=O)[C@@H](NC(=O)[C@H](CC(=O)O)NC(=O)[C@@H](N)CC(=O)O)[C@@H](C)CC)C(=O)N[C@@H](Cc1ccc(O)cc1)C(=O)N[C@@H](Cc1c[nH]c2ccccc12)C(=O)O (H-DDIYEIYW-OH) | – | – | 4.35 pM | 4.92 | 0.88 pmol | –
9 | CC[C@H](C)[C@H](NC(=O)[C@H](Cc1c[nH]cn1)NC(=O)[C@@H](N)CCC(=O)O)C(=O)N[C@@H](Cc1ccc(O)cc1)C(=O)N[C@@H](Cc1c[nH]cn1)C(=O)N[C@@H](CCCN=C(N)N)C(=O)N[C@@H](Cc1c[nH]cn1)C(=O)N[C@@H](CCSC)C(=O)O (H-EHIYHRHM-OH) | – | – | 2.73 pM | 8.27 | 0.33 pmol | –
10 | CC[C@H](C)[C@H](NC(=O)[C@H](CCC(=O)O)NC(=O)[C@H](CC(=O)O)NC(=O)[C@H](Cc1ccc(O)cc1)NC(=O)[C@@H](NC(=O)[C@H](CCC(=O)O)NC(=O)[C@@H](N)CCC(=O)O)[C@@H](C)CC)C(=O)N[C@@H](Cc1ccc(O)cc1)C(=O)O (H-EEIYDEIY-OH) | 3.75 | 17.1 | 14.4 pM | 3.44 | 4.18 pmol | –
11 | Bcr/Abl fusion protein (Homo sapiens) (from UniProt P00519+P11274) | – | – | – | – | – | Vmax [6]: 7.5 pmol/min; Vmax [7]: 5.1 pmol/min; Vmax [8]: 7.33 pmol/min; Vmax [9]: 10.5 pmol/min; Vmax [10]: 4.64 pmol/min; Vmax [11]: 5.27 pmol/min; Km [12]: 439 µM; Km [13]: 121 µM; Km [14]: 130 µM; Km [15]: 106 µM; Km [16]: 141 µM; Km [17]: 54 µM
12 | CC[C@H](C)[C@H](NC(=O)[C@H](CCCN=C(N)N)NC(=O)[C@@H](N)CC(C)C)C(=O)N[C@@H](Cc1ccc(O)cc1)C(=O)N[C@@H](CCC(=O)O)C(=O)N[C@@H](CCCN=C(N)N)C(=O)N1CCC[C@H]1C(=O)N[C@@H](CCCN=C(N)N)C(=O)O (H-LRIYERPR-OH) | – | – | 10.7 pM | 8.73 | 1.23 pmol | –
13 | CC[C@H](C)[C@H](NC(=O)[C@H](CCC(=O)O)NC(=O)[C@@H](N)Cc1ccc(O)cc1)C(=O)N[C@@H](Cc1ccc(O)cc1)C(=O)N[C@@H](CC(=O)O)C(=O)N[C@@H](Cc1ccc(O)cc1)C(=O)N[C@@H](Cc1ccc(O)cc1)C(=O)N[C@H](C(=O)O)C(C)C (H-YEIYDYYV-OH) | – | – | 7.89 pM | 2.91 | 2.71 pmol | –
14 | CC[C@H](C)[C@H](NC(=O)[C@H](CCC(=O)O)NC(=O)[C@@H](N)CCC(=O)O)C(=O)N[C@@H](Cc1ccc(O)cc1)C(=O)N[C@@H](Cc1ccc(O)cc1)C(=O)N[C@@H](Cc1ccc(O)cc1)C(=O)N[C@H](C(=O)N[C@@H](Cc1c[nH]cn1)C(=O)O)C(C)C (H-EEIYYYVH-OH) | 2.38 | 32.9 | 17.7 pM | 5.24 | 3.37 pmol | –
